Columns and labels:
Assay type in all cases: in vivo, human
[1] = system: RasGRP3, DUSP6; experiment: RNAseq gene expression in tumour biopsies
Protocol: Detailed DNA and RNA extraction methods and analysis are described in the supplementary appendix.
RNA libraries were prepared for RNAseq as previously described. Briefly, the total RNA was depleted of ribosomal RNA (rRNA), fragmented, converted to cDNA, and then the next generation sequencing (NGS) library was constructed using the TruSeq RNA v2 Library Preparation Kit (Illumina) with end repair, A-tailing, indexed adaptor ligation and PCR amplification steps. Sequence reads were aligned with STAR [12] to the hg19 human reference genome, and read counts of coding regions were summarised by HTSeq using a reference transcriptome of human Refseq transcripts.

[2] = system: PKC delta (pPKCd, S299); experiment: pPKC delta in tumour biopsies (Sally Sue microcapillary electrophoresis); details: QD schedule
Description: (§1) Fresh metastatic tumour biopsies were collected at baseline (prior to first dose) and on treatment at C1D15 to evaluate the modulation of PKC substrate proteins in tumours following exposure to LXS196 and to perform exploratory transcriptome and targeted DNA sequencing. Whole blood samples (peripheral blood mononuclear cells; PBMCs) were collected pre-dose on C1D1 and D15, and at various time points post-dose on C1D1, D2, D3, D15 and D16 to evaluate the modulation of PKC substrate proteins in a surrogate tissue. Owing to the exploratory nature of this phase I study, formal statistical tests were not planned to be performed. Data are presented using descriptive statistics and visualisations. Continuous variables are described with the mean and range. […]
(§2) Custom assays were developed to measure the status of the PKC pathway. In brief, tumour tissue was homogenised in lysis buffer, and total protein concentrations were determined using a bicinchoninic acid (BCA) assay (Pierce). […] Total and phosphorylated PKCdelta (PKCd; pPKCd, phosphorylated at S299) levels were determined using microcapillary electrophoresis on the Sally Sue platform (Protein Simple, San Jose, CA, USA). Area under the peaks corresponding to the target was measured and used for further calculation. […]
Total and phosphorylated PKC delta were measured in all feasible tumour biopsies. […] The normalised PKC delta is calculated as follows: […]

[3] = system: MARCKS (pMARCKS); experiment: pMARCKS in tumour biopsies (Meso Scale Discovery); details: QD schedule
Description: as §1, §2
Total and phosphorylated MARCKS were measured in all feasible tumour biopsies. […] The normalised MARCKS is calculated as follows: […]

## CC1(N)CCN(c2cccnc2NC(=O)c2nc(-c3ncccc3C(F)(F)F)cnc2N)CC1 [LXS196]
[1]
  MAPK pathway activity as measured by DUSP6 expression: trend towards suppression in the PR group
[1]; C1D15, QD and BID
  RasGRP3 expression on treatment: decreased in some patients
[2]
  pPKC delta, mean (range) percentage change from baseline to C1D15 (normalised ratio): −68.1 (−91.4, −28.6) %
[3]
  pMARCKS, mean (range) percentage change from baseline to C1D15 (normalised ratio): −39.7 (−89.7, 199) %

Reference: paper PMC10006169, “A phase I trial of LXS196, a protein kinase C (PKC) inhibitor, for metastatic uveal melanoma” (British Journal of Cancer, 2023)
